Patent US20220267260A1, “COMPOUNDS CONTAINING A SULFONIC GROUP AS KAT INHIBITORS” (Epizyme, Inc., priority 2016, published 2022)
pIC50: −log10 of the molar value.

What was measured:
KAT6A = molecular target: T1, KAT6A (Homo sapiens, UniProt Q92794); assay: KAT6A enzyme inhibition assay (SAMDI mass spectrometry); format: biochemical; details: His-TEV-KAT6A 501-784 enzyme construct
T1 construct: His-TEV tag (N, cleaved yes); made in house

KAT5 = molecular target: T2, KAT5 (Homo sapiens, UniProt Q92993); assay: KAT5 enzyme inhibition assay (SAMDI mass spectrometry); format: biochemical; details: His-TEV-FL KAT5-Flag enzyme construct
T2 construct: His-TEV tag (N, cleaved yes); made in house
T2 sequence (Q92993 with tags, fused parts or gaps): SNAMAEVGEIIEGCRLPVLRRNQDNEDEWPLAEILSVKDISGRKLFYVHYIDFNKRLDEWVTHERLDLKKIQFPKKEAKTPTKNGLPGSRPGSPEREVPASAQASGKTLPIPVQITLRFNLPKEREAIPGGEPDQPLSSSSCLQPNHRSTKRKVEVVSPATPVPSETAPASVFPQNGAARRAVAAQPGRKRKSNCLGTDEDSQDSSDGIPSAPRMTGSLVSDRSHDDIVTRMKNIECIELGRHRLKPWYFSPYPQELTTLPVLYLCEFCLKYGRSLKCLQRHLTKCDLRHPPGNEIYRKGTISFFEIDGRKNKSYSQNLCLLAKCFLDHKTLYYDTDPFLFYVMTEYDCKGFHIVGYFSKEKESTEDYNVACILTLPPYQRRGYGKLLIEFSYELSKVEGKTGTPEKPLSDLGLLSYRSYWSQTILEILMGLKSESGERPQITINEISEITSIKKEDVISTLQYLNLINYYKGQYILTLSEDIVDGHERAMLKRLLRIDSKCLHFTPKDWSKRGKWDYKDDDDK

T1 sequence (Q92794 with tags, fused parts or gaps): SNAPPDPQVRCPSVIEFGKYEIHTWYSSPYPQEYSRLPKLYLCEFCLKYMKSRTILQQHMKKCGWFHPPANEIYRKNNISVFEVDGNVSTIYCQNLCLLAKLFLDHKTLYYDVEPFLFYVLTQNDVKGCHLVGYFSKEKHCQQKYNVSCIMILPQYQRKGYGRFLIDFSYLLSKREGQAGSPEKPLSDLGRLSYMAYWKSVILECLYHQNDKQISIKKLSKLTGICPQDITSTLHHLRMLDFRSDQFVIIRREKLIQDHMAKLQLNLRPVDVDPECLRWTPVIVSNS

| Compound | pIC50 (KAT6A) | pIC50 (KAT5) |
| --- | --- | --- |
| O=C(NNC(c1ccccc1)C(F)(F)F)c1ccccc1F (stereo not shown) [Compound I-134] | < 4.00 | < 4.00 |
| O=C(NNS(=O)(=O)c1ccccc1)c1c(F)c(Cl)cc(-c2ccccc2)c1F [Compound I-136] | ≥ 5.00 | ≥ 5.00 |
| Cc1cc(-c2ccccc2)cc(C(=O)NNS(=O)(=O)C2CC3CCC(C2)N3C(=O)OC(C)(C)C)c1F (stereo not shown) [Compound I-137] | 4.30 to 5.00 | 4.30 to 5.00 |
| Cc1ccc(-c2ccccc2)c(F)c1C(=O)NNS(=O)(=O)c1ccccc1 [Compound I-139] | < 4.00 | < 4.00 |
| Cc1cc(-c2ccccc2)cc(C(=O)NNS(=O)(=O)CC2CCNCC2)c1F [Compound I-141] | < 4.00 | 4.00 to 4.30 |
| O=C(NNS(=O)(=O)c1ccccc1)c1cccc(-c2ccccc2)c1 [Compound I-144] | ≥ 5.00 | < 4.00 |
| Cc1cc(-c2ccccc2)cc(C(=O)Nc2nnc3n2CCCC3)c1F [Compound I-150] | < 4.00 | < 4.00 |
| Cc1cc(-c2ccccc2)cc(C(=O)NS(=O)(=O)N2CCCC2)c1F [Compound I-151] | < 4.00 | < 4.00 |
| Cc1cc(-c2ccccc2)cc(C(=O)NNS(=O)(=O)c2ccc(=O)[nH]c2)c1F [Compound I-162] | ≥ 5.00 | < 4.00 |
| O=C(NNS(=O)(=O)c1ccc2ccccc2c1)c1c(F)ccc(-c2ccccc2)c1F [Compound I-164] | ≥ 5.00 | ≥ 5.00 |
| Cc1cc(-c2ccccc2)cc(C(=O)NS(=O)(=O)c2ccccc2)c1F [Compound I-168] | 4.00 to 4.30 | 4.00 to 4.30 |
| O=C(NNCc1ccccc1)c1ccccc1F [Compound I-169] | < 4.00 | < 4.00 |
| O=C(NNS(=O)(=O)c1cccc(Cl)c1)c1c(F)ccc(-c2ncc[nH]2)c1F [Compound I-170] | 4.00 to 4.30 | < 4.00 |
| Cc1c(-c2ccccc2)ccc(F)c1C(=O)NNC(=O)c1ccccc1 [Compound I-171] | < 4.00 | < 4.00 |
| Cc1cc(-c2ccccc2)cc(C(=O)NCc2cc[nH]n2)c1F [Compound I-173] | < 4.00 | < 4.00 |
| Cc1cc(-c2ccccc2)cc(C(=O)NNS(=O)(=O)c2cccnc2)c1F [Compound I-175] | ≥ 5.00 | ≥ 5.00 |

| Compound | pIC50 (KAT6A) | pIC50 (KAT5) |
| --- | --- | --- |
| COc1ccccc1S(=O)(=O)NNC(=O)c1cc(-c2ccccc2)cc(C)c1F [Compound I-176] | ≥ 5.00 | ≥ 5.00 |
| Cc1cc(-c2ccccc2)cc(C(=O)NCC(O)c2ccccc2)c1F (stereo not shown) [Compound I-178] | < 4.00 | < 4.00 |
| Cc1cc(-c2ccccc2)cc(C(=O)NNS(=O)(=O)C2CC3CCC(C2)N3)c1F (stereo not shown) [Compound I-184] | < 4.00 | < 4.00 |
| O=C(NS(=O)(=O)c1ccccc1)c1c[nH]c2ccccc12 [Compound I-185] | < 4.00 | < 4.00 |
| Cc1cccc(S(=O)(=O)NNC(=O)c2cc(-c3ccccc3)cc(C)c2F)c1 [Compound I-188] | ≥ 5.00 | ≥ 5.00 |
| O=C(NNS(=O)(=O)c1ccccc1)c1ncccn1 [Compound I-189] | < 4.00 | < 4.00 |
| Cc1cc(-c2cccnc2)cc(C(=O)NNS(=O)(=O)c2ccccc2)c1F [Compound I-195] | ≥ 5.00 | 4.30 to 5.00 |
| O=C(NNS(=O)(=O)c1ccccc1)c1cnn(-c2ccccc2)c1 [Compound I-197] | < 4.00 | < 4.00 |
| Cc1cc(-c2ccccc2)cc(C(=O)N2CC(S(=O)(=O)c3ccccc3)C2)c1F [Compound I-199] | < 4.00 | < 4.00 |
| Cc1ccc(-c2ccccc2)c(C)c1C(=O)NNS(=O)(=O)c1ccccc1 [Compound I-200] | < 4.00 | < 4.00 |
| Cc1cccc(C(=O)NNS(=O)(=O)C2CNC2)c1F [Compound I-203] | < 4.00 | < 4.00 |
| Cc1cc(-c2ccccc2)cc(C(=O)NNS(=O)(=O)CC2CCN(C(=O)OC(C)(C)C)C2)c1F (stereo not shown) [Compound I-206] | ≥ 5.00 | ≥ 5.00 |
| Cc1cc(-c2ccccc2)cc(C(=O)NNS(=O)(=O)CC2CN(C(=O)OC(C)(C)C)C2)c1F [Compound I-207] | ≥ 5.00 | ≥ 5.00 |
| COCCN1CC(CS(=O)(=O)NNC(=O)c2cc(-c3ccccc3)cc(C)c2F)C1 [Compound I-208] | 4.30 to 5.00 | 4.30 to 5.00 |
| Cc1cc(-c2ccccc2)cc(C(=O)NNS(=O)(=O)c2ccccn2)c1F [Compound I-209] | ≥ 5.00 | ≥ 5.00 |
| Cc1cc(-c2ccccc2)cc(C(=O)NNS(=O)(=O)c2cccc(OCc3ccccc3)c2)c1F [Compound I-210] | ≥ 5.00 | ≥ 5.00 |

Further lines, results first:

| pIC50 (KAT6A) | pIC50 (KAT5) | Compound |
| --- | --- | --- |
| ≥ 5.00 | < 4.00 | Cc1cccc(S(=O)(=O)NNC(=O)c2cc(-c3ccccc3)ccc2F)c1 [Compound I-131] |
| ≥ 5.00 | 4.00 to 4.30 | O=C(NNS(=O)(=O)c1ccccc1)c1c(F)ccc(-c2ccccn2)c1F [Compound I-132] |
| < 4.00 | < 4.00 | O=C(NN[S+]([O-])c1ccccc1)c1ccccc1F (stereo not shown) [Compound I-133] |
| < 4.00 | < 4.00 | Cc1cccc(F)c1C(=O)NNS(=O)(=O)c1ccccc1 [Compound I-135] |
| < 4.00 | < 4.00 | O=C(NNC(=O)c1ccccc1F)c1ccccc1 [Compound I-138] |
| ≥ 5.00 | 4.30 to 5.00 | Cc1cc(C(=O)NNS(=O)(=O)c2ccccc2)c(F)c(-c2ccccc2)c1 [Compound I-142] |
| 4.30 to 5.00 | < 4.00 | O=C(NNS(=O)(=O)c1ccc(Cl)cc1)c1ccccc1F [Compound I-143] |
| < 4.00 | < 4.00 | COc1ccccc1C(=O)NNS(=O)(=O)c1ccccc1 [Compound I-145] |
| ≥ 5.00 | 4.30 to 5.00 | Cc1cc(-c2ccccc2)cc(C(=O)NNS(=O)(=O)c2ccc(CO)cc2)c1F [Compound I-147] |
| < 4.00 | < 4.00 | Cc1ccccc1C(=O)NNS(=O)(=O)c1ccccc1 [Compound I-148] |
| < 4.00 | < 4.00 | O=C(NNS(=O)(=O)c1ccccc1)c1ccccc1Cl [Compound I-149] |
| ≥ 5.00 | 4.30 to 5.00 | O=C(NNS(=O)(=O)c1cccc(Cl)c1)c1cc(-c2ccccc2)ccc1F [Compound I-152] |
| ≥ 5.00 | 4.30 to 5.00 | O=C(NNS(=O)(=O)c1ccccc1)c1cc(Cl)ccc1F [Compound I-153] |
| ≥ 5.00 | 4.30 to 5.00 | O=C(NNS(=O)(=O)c1cccc(F)c1)c1cc(-c2ccccc2)ccc1F [Compound I-154] |
| ≥ 5.00 | 4.30 to 5.00 | Cc1cccc(S(=O)(=O)NNC(=O)c2c(F)ccc(-c3ccccc3)c2F)c1 [Compound I-155] |
| ≥ 5.00 | 4.30 to 5.00 | O=C(NNS(=O)(=O)c1ccc(Cl)cc1)c1c(F)ccc(-c2ccccc2)c1F [Compound I-156] |
| < 4.00 | < 4.00 | O=C(NNS(=O)(=O)c1ccccc1)c1c[nH]c2ccccc12 [Compound I-158] |
| 4.00 to 4.30 | < 4.00 | O=C(NNS(=O)(=O)c1ccccc1)c1ccccc1 [Compound I-159] |
| ≥ 5.00 | 4.30 to 5.00 | O=C(NNS(=O)(=O)c1ccccc1)c1cccc(Cl)c1F [Compound I-160] |
| ≥ 5.00 | 4.30 to 5.00 | O=C(NNS(=O)(=O)c1cccc(Cl)c1)c1c(F)ccc(-c2ccccc2)c1F [Compound I-161] |

| pIC50 (KAT6A) | pIC50 (KAT5) | Compound |
| --- | --- | --- |
| 4.30 to 5.00 | < 4.00 | O=C(NNS(=O)(=O)c1ccccc1)c1ccccc1F [Compound I-165] |
| 4.30 to 5.00 | < 4.00 | O=C(NNS(=O)(=O)c1ccccc1)c1c(F)cccc1F [Compound I-166] |
| 4.30 to 5.00 | 4.00 to 4.30 | O=C(NNS(=O)(=O)c1ccccc1)c1c(F)ccc(-c2cn[nH]c2)c1F [Compound I-167] |
| 4.30 to 5.00 | < 4.00 | Cn1ccnc1-c1ccc(F)c(C(=O)NNS(=O)(=O)c2ccccc2)c1F [Compound I-172] |
| < 4.00 | < 4.00 | COc1ccccc1S(=O)(=O)NNC(=O)c1ccccc1F [Compound I-174] |
| 4.30 to 5.00 | < 4.00 | COc1cccc(S(=O)(=O)NNC(=O)c2ccccc2F)c1 [Compound I-177] |
| < 4.00 | < 4.00 | O=C(NNS(=O)(=O)c1ccccc1)c1cccc2ccccc12 [Compound I-180] |
| ≥ 5.00 | 4.30 to 5.00 | Cc1cccc(C(=O)NNS(=O)(=O)c2ccccc2)c1F [Compound I-183] |
| 4.30 to 5.00 | 4.00 to 4.30 | COc1ccc(S(=O)(=O)NNC(=O)c2c(F)ccc(-c3ccccc3)c2C)cc1 [Compound I-186] |
| ≥ 5.00 | ≥ 5.00 | Cc1cc(-c2ccccc2)cc(C(=O)NNS(=O)(=O)c2cccc(Cl)c2)c1F [Compound I-187] |
| 4.30 to 5.00 | 4.00 to 4.30 | O=C(NNS(=O)(=O)c1ccccc1)c1cccc(Cl)c1 [Compound I-190] |
| < 4.00 | < 4.00 | COc1ccc(C(=O)NNS(=O)(=O)c2ccccc2)cc1 [Compound I-192] |
| 4.00 to 4.30 | < 4.00 | O=C(NNS(=O)(=O)c1ccccc1)c1ccc(F)cc1 [Compound I-193] |
| < 4.00 | < 4.00 | O=C(NNS(=O)(=O)c1ccccc1)c1ccccn1 [Compound I-194] |
| 4.00 to 4.30 | < 4.00 | O=C(NNS(=O)(=O)c1ccccc1)c1n[nH]c2ccccc12 [Compound I-196] |
| ≥ 5.00 | 4.00 to 4.30 | O=C(NNS(=O)(=O)c1cccc(Cl)c1)c1c(F)ccc(Cl)c1F [Compound I-198] |
| 4.30 to 5.00 | < 4.00 | Cc1cc(-c2ccncc2)cc(C(=O)NNS(=O)(=O)c2ccccc2)c1F [Compound I-202] |
| 4.00 to 4.30 | < 4.00 | Cc1c(F)cc(-c2ccccc2)cc1C(=O)NNS(=O)(=O)c1ccccc1 [Compound I-205] |
| ≥ 5.00 | ≥ 5.00 | Cc1cc(-c2ccccc2)cc(C(=O)NNS(=O)(=O)c2ccc(O)cc2)c1F [Compound I-211] |
